In patent US9394233B2, “ROS-activated compounds as selective anti-cancer therapeutics” (University of Cincinnati, priority 2012, dated 2016):
Where two headings read alike, the source gives them in different places.

Legend:
[1] = tested on: human CD34+ blood stem/progenitor cells; assay: Cytotoxicity, MTT assay on CD34+ blood stem/progenitor cells; type: cell-based; conditions: normal blood stem cells, read-out: IC50 against CD34+ blood stem/progenitor cells
Description: (§1) To assess the anti-cancer activity against AML, transformed cells were compared to closely related, non-transformed counterparts. In the case of AML, the generally accepted non-transformed cell of origin is the human CD34+ blood stem/progenitor cell. Assessing potency against normal blood stem cells is important since, without selective cytotoxicity, an agent will yield reduced efficacy and therapeutic potential. […] Therefore, a comparison of current agents and the ROS-activated compounds disclosed herein was carried out. (FIG. 3). Cytotoxicity was measured via MTT assay on CD34+ blood stem/progenitor cells (grey lines) and on the MA9.3 AML cell line (black lines), which was derived from the transformation of human CD34+ cells by introduction of the leukemia oncogene MLL-AF9.

MA9.3 AML cells = assay: AML cytotoxicity, MTT assay on MA9.3 AML cell line; type: cell-based, human; conditions: read-out: IC50 against MA9.3 AML cells
Description: as §1

392-nucleotide dsDNA = assay: Primer extension assay on 392-nucleotide dsDNA (DNA modification); type: biochemical; conditions: dsDNA treated with agent; compound 25 followed by oxidative activation (Na2IrCl6)
HeLa cells = assay: HeLa cell viability, MTT assay; type: cell-based; conditions: Homo sapiens, 50% reduction in percent of viable HeLa cells, read-out: IC50 against HeLa Cells
Experimental: Table 1 sets forth ROS-Activated compounds of the present invention, together with their IC50 values corresponding to a 50% reduction in the percent of viable HeLa cells in vitro as measured via MTT assay.
All synthesized compounds were purified to greater than 98% purity prior to cell testing. HeLa cell viability assays were performed using an MTT assay.
The general structure of the ROS-activated compounds disclosed herein was probed to determine how positions in the structure alter potency in aqueous media. Compounds were screened against HeLa cells to determine IC50 values. Cell viability was monitored by an MTT dye that forms a purple formazan product in viable cells that are undergoing metabolism. […] Errors reported are between two separate experiments; independent curve-fitting had r greater than 0.95).

leukemia cell lines = assay: NCI-60 Sulforhodamine B growth inhibition, leukemia cell lines; type: cell-based; conditions: median in all leukemia cell lines tested
Experimental: (§2) Compounds 25 and 9 were evaluated for effects on the viability of the cell lines in the NCI-60 cell panel. […] Data is reported as growth inhibition GI50, rather than IC50, to reflect the change in cell counts relative to the starting number of cells.
(§3) Growth inhibition pattern induced by 25 and 9 based on the type of cancer was also analyzed. […] The majority of leukemia and renal cancer cell lines were above the median, indicating enhanced sensitivity to ROS-activating compounds. The current results further substantiate renal carcinoma as a potential target.

MOLT-4 = assay: NCI-60 Sulforhodamine B growth inhibition, MOLT-4; type: cell-based; conditions: Homo sapiens; MOLT-4, ALL model line
Experimental: as §2, §3

HL-60 = assay: NCI-60 Sulforhodamine B growth inhibition, HL-60; type: cell-based; conditions: Homo sapiens; HL-60, acute promyelocytic leukemia model
Experimental: as §2, §3

NCI-60 cell panel = assay: NCI-60 cell panel, Sulforhodamine B growth inhibition; type: cell-based; conditions: distribution of GI50 over NCI-60 panel
Experimental: as §2

RPMI-8226 = assay: NCI-60 Sulforhodamine B growth inhibition, RPMI-8226; type: cell-based; conditions: Homo sapiens; RPMI-8226, plasmacytoma and myeloma cell line
Experimental: as §2, §3

CCRF-CEM = assay: NCI-60 Sulforhodamine B growth inhibition, CCRF-CEM; type: cell-based; conditions: Homo sapiens, ALL model line
Experimental: as §2, §3

[2] = tested on: renal and CNS cancer cell lines; assay: Sulforhodamine B viability assay, renal and CNS cancer cell lines; type: cell-based; conditions: panels of renal and CNS cancer cell lines, errors less than 25%
[3] = Oxidation and ROS-dependent hydrolysis of compound 3, monitored by reverse-phase HPLC; type: physicochemical
Description: The oxidative and ROS-activation of the instantly disclosed compounds was investigated. Water, one of the simplest nucleophile substrates, was examined under different oxidative conditions (FIG. 5). A model ROS-activated compound, compound 3, was used to explore the chemical reactivity of these agents (FIG. 5A).
Hydrolysis of compound 3 as a function of time was quantified by separation of the reaction products by reverse-phase HPLC (FIG. 5B). […] To obtain quantifiable data, time points were taken daily over one week.
Addition of the one-electron oxidant, […], led to quantitative hydrolysis of compound 3 with a half-life of 0.4±0.2 hours (FIG. 5B). The oxidation potential of Ir(IV) is 0.7 volts vs. Ag/AgCl making it an appropriate choice for oxidation of hydroquinone derivatives. In additional to oxidation, cells produce reactive oxygen species in the forms of hydroxyl radical and singlet oxygen. Copper and hydrogen peroxide can be used to produce hydroxyl radical. […] The extent of hydrolysis was dependent on the hydrogen peroxide concentration and was slow due to lack of ascorbate (data not shown). Oxidases like horseradish peroxidase reduce molecular oxygen to either hydrogen peroxide or water and at the same time oxidize a substrate with an appropriate potential. The oxidation of compound 3 was difficult to measure via HPLC since after one minute approximately half (53±13%) of compound 3 was hydrolyzed.

Drosophila = Drosophila survival after microinjection, Ercc1 RNAi knockdown versus control; conditions: 0.5 μL of 10 mM injected

IC50 (HeLa cells) [µM]	SMILES	other results
> 125	CCN(CCOc1ccc(N2CCCCC2)cc1)c1ccccc1 [Compound 22, N-ethyl-N-(2-(4-(piperidin-1-yl)phenoxy)ethyl)aniline]	–
77	COC(=O)CCCc1ccc(N(CCOc2ccc(O)cc2)CCOc2ccc(O)cc2)cc1 [Compound 27, methyl 4-(4-(bis(2-(4-hydroxyphenoxy)ethyl)amino)phenyl)butanoate]	–
46	CCN(CCSc1ccc(O)cc1)c1ccccc1 [Compound 15, 4-((2-(ethyl(phenyl)amino)ethyl)thio)phenol]	–
30	CN(CCOc1ccc(O)cc1)Cc1ccccc1 [Compound 8, 4-(2-(benzyl(methyl)amino)ethoxy)phenol]	–
> 125	CCN(CCOc1ccc(OC)cc1)c1ccccc1 [Compound 24, N-ethyl-N-(2-(4-methoxyphenoxy)ethyl)aniline]	–
9	CN(CCCCCOc1ccc(O)cc1)c1ccccc1 [Compound 13, 4-(5-(methyl(phenyl)amino)pentyloxy)phenol]	–
31	Oc1ccc(OCCNc2ccc(Br)cc2)cc1 [Compound 7, 4-(2-((4-bromophenyl)amino)ethoxy)phenol]	–
24	COc1ccc(NCCOc2ccc(O)cc2)cc1 [Compound 5, 4-(2-((4-methoxyphenyl)amino)ethoxy)phenol]	–
161	Oc1ccc(O)cc1 [Hydroquinone, reference compound]	–
44	CCN(CCOc1cccc(O)c1)c1ccccc1 [Compound 18, 3-(2-(ethyl(phenyl)amino)ethoxy)phenol]	–
77	CCN(CCOc1ccccc1O)c1ccccc1 [Compound 19, 2-(2-(ethyl(phenyl)amino)ethoxy)phenol]	–
53	CC(C)N(CCOc1ccc(O)cc1)c1ccccc1 [Compound 4, 4-(2-(isopropyl(phenyl)amino)ethoxy)phenol]	–

Further lines, the compound ahead of its results:

SMILES	IC50 (HeLa cells) [µM]	other results
N.N.[Cl][Pt][Cl] [cisplatin]	–	IC50 [1]: 15 ± 2 µM; IC50 (MA9.3 AML cells): 14 ± 0.7 µM; full-length extension product yield (392-nucleotide dsDNA): no full-length extension product
CCN(CCOc1ccc(NC(C)=O)cc1)c1ccccc1 [Compound 21, N-(4-(2-(ethyl(phenyl)amino)ethoxy)phenyl)acetamide]	45	–
CN(CCOc1ccc(O)cc1)c1ccccc1 [Compound 2, 4-(2-(methyl(phenyl)amino)ethoxy)phenol]	18	–
O=C(O)CCCc1ccc(N(CCCl)CCCl)cc1 [chlorambucil]	–	IC50 ([1]; Homo sapiens): 11 ± 1 µM; IC50 (MA9.3 AML cells; Homo sapiens): 8.7 ± 0.3 µM
CN(CCCOc1ccc(O)cc1)c1ccccc1 [Compound 9, 4-(3-(methyl(phenyl)amino)propoxy)phenol]	7	GI50 (leukemia cell lines): 1.9 µM; IC50 ([1]; Homo sapiens): 5.4 ± 0.9 µM; IC50 (MA9.3 AML cells; Homo sapiens): 0.7 ± 0.2 µM; GI50 (MOLT-4): 2 µM; GI50 (HL-60): 0.9 µM; range of GI50 values (NCI-60 cell panel): 53 fold; GI50 (RPMI-8226): 1.2 µM; GI50 (CCRF-CEM): 0.263 µM; IC50 [2]: micromolar range
CCN(CC(=O)Nc1ccc(O)cc1)c1ccccc1 [Compound 17, 2-(ethyl(phenyl)amino)-N-(4-hydroxyphenyl)acetamide]	108	–
Nc1ccn([C@@H]2O[C@H](CO)[C@@H](O)[C@@H]2O)c(=O)n1 [ara-C, cytosine arabinoside]	–	IC50 [1]: 0.59 ± 0.09 µM; IC50 (MA9.3 AML cells): 0.92 ± 0.03 µM
CCN(CCCOc1ccc(O)cc1)c1ccccc1 [Compound 10, 4-(3-(ethyl(phenyl)amino)propoxy)phenol]	16	–
CC(=O)Oc1ccc(OCCN(CCOc2ccc(OC(C)=O)cc2)c2ccccc2)cc1 [Compound 29, (((phenylazanediyl)bis(ethane-2,1-diyl))bis(oxy))bis(4,1-phenylene) diacetate]	12	–
O=C1C=CC(=O)C=C1 [benzoquinone, reference compound]	227	–
O=C(O)CCCc1ccc(N(CCOc2ccc(O)cc2)CCOc2ccc(O)cc2)cc1 [Compound 28, 4-(4-(bis(2-(4-hydroxyphenoxy)ethyl)amino)phenyl)butanoic acid]	67	–
CN(CCCCOc1ccc(O)cc1)c1ccccc1 [Compound 11, 4-(4-(methyl(phenyl)amino)butoxy)phenol]	8	–
CCN(CCOc1ccc(N)cc1)c1ccccc1 [Compound 20, N-(2-(4-aminophenoxy)ethyl)-N-ethylaniline]	> 125	–
COc1ccc(N(CCOc2ccc(O)cc2)CCOc2ccc(O)cc2)cc1 [Compound 26, 4,4′-((((4-methoxyphenyl)azanediyl)bis(ethane-2,1-diyl))bis(oxy))diphenol]	15	–
Oc1ccc(OCCNc2ccccc2)cc1 [Compound 1, 4-(2-(phenylamino)ethoxy)phenol]	30	–
COc1cccc2c1C(=O)c1c(O)c3c(c(O)c1C2=O)C[C@@](O)(C(=O)CO)C[C@@H]3O[C@H]1C[C@H](N)[C@H](O)[C@H](C)O1 [doxorubicin]	–	IC50 ([1]; Homo sapiens): 0.076 ± 0.018 µM; IC50 (MA9.3 AML cells; Homo sapiens): 0.086 ± 0.05 µM
CCN(CCOc1ccc(O)cc1)c1ccccc1 [Compound 3, 4-(2-(ethyl(phenyl)amino)ethoxy)phenol]	23	half-life ([3]; one-electron oxidant Na2Ir2Cl6 added, addition of one-electron oxidant Na2Ir2Cl6): 0.4 ± 0.2 h; half-life ([3]; oxidation by copper chloride-hydrogen peroxide (hydroxyl radical)): 12.1 h; half-life ([3]; phosphate buffer, no oxidant, assuming first order kinetics): 693 ± 42 h; death on Day 1 (Drosophila; Drosophila lacking Ercc1 expression (da-GAL4/UAS-Ercc1RNAi)): 60%; death on Day 1 (Drosophila; control flies with wild-type Ercc1 expression (da-GAL4/+)): 10%
CCN(CCCCOc1ccc(O)cc1)c1ccccc1 [Compound 12, 4-(4-(ethyl(phenyl)amino)butoxy)phenol]	14	–
COc1ccc(N(C)CCOc2ccc(O)cc2)cc1 [Compound 6, 4-(2-((4-methoxyphenyl)(methyl)amino)ethoxy)phenol]	13	–
CN(CCCSc1ccc(O)cc1)c1ccccc1 [Compound 16, 4-((3-(methyl(phenyl)amino)propyl)thio)phenol]	44	–
